Starred links: 1 amine or outer side, 2 acyl side, 3 side chain; linkers in the order of their positions; H or OH if unused. *: point of attachment. cholesteryl‑oxycarbonylmethyl = CC(C)CCC[C@@H](C)[C@H]1CC[C@H]2[C@@H]3CC=C4C[C@@H](OC(=O)C*)CC[C@]4(C)[C@H]3CC[C@]12C; Suc = O=C(CCC(=O)[*:2])[*:1]; Pentanoyl = CCCCC(=O)*
Experiments:
[1] = test system: HIV wild type virus strain IIIB; experiment: Standard Anti-Viral-Experiment (AVE), HIV-1 replication assay in MT4-LTR-EGFP cells, wild type IIIB; format: cell-based; conditions: 3 days, EGFP signal
Text: • Standard Anti-Viral-Experiment “AVE” (wild type HIV strain IIIB+HIV strain HXB2D side directed mutants V38A and Q40H)
The HIV-1 replication assay measures virus replication (HIV wild type virus strain 111B or HXB2D, or a HIV mutant virus strain HXB2D with mutation V38A or Q40H in the gp41 gene) as an induction of enhanced green fluorescent protein (EGFP) expression. The indicator MT4-LTR-EGFP cells contain an EGFP gene under the control of the HIV-1 LTR promoter sequence. Successful HIV-1 infection results in viral Tat protein expression and subsequent induction of EGFP expression. Compounds/peptides inhibiting HIV-1 infection are expected to reduce EGFP expression as compared to the untreated HIV-infected control.
Serial 4-fold dilutions of test compounds/peptides were mixed with HIV-1 (IIIB, HXB2D, or a HXB2D mutant virus (V38A or Q40H)) and MT4-LTR-EGFP cells and incubated at 37° C. After 3 days, the wells were examined for EGFP expression using an argon laser-scanning microscope. The effective compound/peptide concentration inhibiting 50% of the virus-induced EGFP signal (EC50) was determined by linear interpolation of the EGFP signal vs. logarithm of the compound concentration; (T20, C34 and Sifuvirtide were added as reference compounds). For the V38A and Q40H mutant viruses, results were reported as a fold change in EC50, as compared with a drug-susceptible wild type strain HXB2D, which forms the backbone of the mutant virus. • Standard AVE (50% Human Serum)

HIV-IIIB + 50% HS = experiment: Standard AVE (50% Human Serum), HIV-1 replication assay in MT4-LTR-EGFP cells; format: cell-based; conditions: fold change vs EC50 in the assay without human serum
Text: The HIV-1 replication assay (with 50% human serum) measures virus replication as an induction of enhanced green fluorescent protein (EGFP) expression, in the presence of 50% human serum. The indicator MT4-LTR-EGFP cells contain an EGFP gene under the control of the HIV-1 LTR promoter sequence. Successful HIV-1 infection results in viral Tat protein expression and subsequent induction of EGFP expression. Compounds/peptides inhibiting HIV-1 infection are expected to reduce EGFP expression as compared to the untreated HIV-infected control. Compounds/peptides binding to human serum are expected to have a reduced activity for inhibiting the virus in the assay.
Serial 4-fold dilutions of test compounds/peptides were mixed with HIV-1 and MT4-LTR-EGFP cells and incubated at 37° C., in the presence of 50% human serum. After 3 days, the wells were examined for EGFP expression using an argon laser-scanning microscope. The effective compound/peptide concentration inhibiting 50% of the virus-induced EGFP signal (EC50) was determined by linear interpolation of the EGFP signal vs. logarithm of the compound concentration; T20, C34 and Sifuvirtide were added as reference compounds. Results were reported as a fold change in EC50, as compared with the acquired EC50 in the assay without human serum.

Row | Substance | EC50 [1] [nM] | HIV-IIIB + 50% HS (Fold change in EC50) (HIV-IIIB + 50% HS)
1 | Suc-ENYLRLIEELIRKAQEQQEKNEAALRGSGC(cholesteryl-oxycarbonylmethyl)-NH2 (Suc-ENYLRLIEELIRKAQEQQEKNEAALRGSGC(cholesteryl‑oxycarbonylmethyl)-NH2; SMILES CC[C@H](C)[C@H](NC(=O)[C@H](CC(C)C)NC(=O)[C@H](CCC(=O)O)NC(=O)[C@H](CCC(=O)O)NC(=O)[C@@H](NC(=O)[C@H](CC(C)C)NC(=O)[C@H](CCCNC(=N)N)NC(=O)[C@H](CC(C)C)NC(=O)[C@H](Cc1ccc(O)cc1)NC(=O)[C@H](CC(N)=O)NC(=O)[C@H](CCC(=O)O)NC(=O)CCC(=O)O)[C@@H](C)CC)C(=O)N[C@@H](CCCNC(=N)N)C(=O)N[C@@H](CCCCN)C(=O)N[C@@H](C)C(=O)N[C@@H](CCC(N)=O)C(=O)N[C@@H](CCC(=O)O)C(=O)N[C@@H](CCC(N)=O)C(=O)N[C@@H](CCC(N)=O)C(=O)N[C@@H](CCC(=O)O)C(=O)N[C@@H](CCCCN)C(=O)N[C@@H](CC(N)=O)C(=O)N[C@@H](CCC(=O)O)C(=O)N[C@@H](C)C(=O)N[C@@H](C)C(=O)N[C@@H](CC(C)C)C(=O)N[C@@H](CCCNC(=N)N)C(=O)NCC(=O)N[C@@H](CO)C(=O)NCC(=O)N[C@@H](CSCC(=O)O[C@H]1CC[C@@]2(C)C(=CC[C@H]3[C@@H]4CC[C@H]([C@H](C)CCCC(C)C)[C@@]4(C)CC[C@@H]32)C1)C(N)=O) [Peptide 32] | 0.04 | 13
2 | Penlanoyl-ECYLACIEALIRAAQEQQEKNEAALR-NH2 (Pentanoyl-ECYLACIEALIRAAQEQQEKNEAALR-NH2; cysteine pairing not given here) [Peptide 39] | 7 | 5
3 | AC-ACYWACIEALIRAAQEQQEKNEAALR-NH2 [Peptide 63] | 7 | 3
4 | ANYAALIEALIRKAQEQQEKNEAALR [Peptide 5] | 48 | 0.5
5 | Suc-ANYAALIEALIRAAQEQQEKNEAALR-NH2 (SMILES CC[C@H](C)[C@H](NC(=O)[C@H](CC(C)C)NC(=O)[C@H](C)NC(=O)[C@H](CCC(=O)O)NC(=O)[C@@H](NC(=O)[C@H](CC(C)C)NC(=O)[C@H](C)NC(=O)[C@H](C)NC(=O)[C@H](Cc1ccc(O)cc1)NC(=O)[C@H](CC(N)=O)NC(=O)[C@H](C)NC(=O)CCC(=O)O)[C@@H](C)CC)C(=O)N[C@@H](CCCNC(=N)N)C(=O)N[C@@H](C)C(=O)N[C@@H](C)C(=O)N[C@@H](CCC(N)=O)C(=O)N[C@@H](CCC(=O)O)C(=O)N[C@@H](CCC(N)=O)C(=O)N[C@@H](CCC(N)=O)C(=O)N[C@@H](CCC(=O)O)C(=O)N[C@@H](CCCCN)C(=O)N[C@@H](CC(N)=O)C(=O)N[C@@H](CCC(=O)O)C(=O)N[C@@H](C)C(=O)N[C@@H](C)C(=O)N[C@@H](CC(C)C)C(=O)N[C@@H](CCCNC(=N)N)C(N)=O) [Peptide 3] | 22 | 0.4
6 | Ac-ACYAACIEALIRAAQEQQEKNEAALR-NH2 [Peptide 64] | 56 | 0.8
7 | AC-ACYAACIEALIRAAQEQQEKNEAALR-NH2 [Peptide 89] | 18 | 3
8 | Ac-CYAACIEALIRAAQEQQEKNEAALR-NH2 [Peptide 21] | 5 | 3
9 | AC-ECYAACIEALIRAAQEQQEKNEAALR-NH2 [Peptide 74] | 53 | 0.9
10 | Suc-aNYLALIEALIRAAQEQQEKNEAALr-NH2 [Peptide 12] | 10 | 0.4
11 | Ac-ACYAACIEALIRKAQEQQEKNEAALR-NH2 [Peptide 71] | 8 | 1
12 | Ac-ACYAAcIEALIRAAQEQQEKNEAALR-NH2 [Peptide 83] | 54 | 3
13 | Suc-ACYAACIEALIRAAQEQQEKNEAALR-NH2 (cysteine pairing not given here) [Peptide 67] | 8 | 0.8
14 | Ac-ACYFACIEALIRAAQEQQEKNEAALR-NH2 [Peptide 61] | 4 | 4
15 | Ac-aCYAACIEALIRAAQEQQEKNEAALr-NH2 [Peptide 76] |  | 2

— patent publication US20140357577A1, “HIV Membrane Fusion Inhibitors” (priority 2011, published 2014)
